The target of data set [1] is T1, SLCO1B1*15 (N130D and V174A) (Homo sapiens, UniProt Q9Y6L6, N130D/V174A).
T1 sequence (Q9Y6L6 1-691 N130D/V174A): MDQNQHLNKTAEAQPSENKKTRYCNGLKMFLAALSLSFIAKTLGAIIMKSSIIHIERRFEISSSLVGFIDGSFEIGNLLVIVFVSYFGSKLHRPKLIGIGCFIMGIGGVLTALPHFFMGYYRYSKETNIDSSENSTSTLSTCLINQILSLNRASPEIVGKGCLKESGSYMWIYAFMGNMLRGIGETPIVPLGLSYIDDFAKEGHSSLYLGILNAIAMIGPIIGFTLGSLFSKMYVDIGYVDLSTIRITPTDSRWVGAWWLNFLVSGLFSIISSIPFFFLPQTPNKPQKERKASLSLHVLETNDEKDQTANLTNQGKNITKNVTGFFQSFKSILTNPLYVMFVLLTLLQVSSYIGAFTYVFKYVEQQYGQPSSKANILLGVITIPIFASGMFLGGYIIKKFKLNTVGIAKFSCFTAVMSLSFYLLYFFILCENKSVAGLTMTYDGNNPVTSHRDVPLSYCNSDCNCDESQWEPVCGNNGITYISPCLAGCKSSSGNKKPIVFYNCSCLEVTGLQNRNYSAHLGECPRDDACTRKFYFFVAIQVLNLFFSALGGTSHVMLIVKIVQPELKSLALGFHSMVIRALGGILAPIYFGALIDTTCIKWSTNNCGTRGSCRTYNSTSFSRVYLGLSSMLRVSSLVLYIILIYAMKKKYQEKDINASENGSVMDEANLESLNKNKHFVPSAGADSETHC
The settings on record: among the variants examined; cited from earlier work.

Data set [2] can be described thus: Irinotecan pharmacokinetics (AUC, noncompartmental analysis) in cancer patients stratified by genotype.
From the text: (§1) Sixty-four adults (48 Caucasians, 10 African-Americans, 4 Hispanics, and 2 others) with refractory solid tumors took part in the pharmacogenetic study.
(§2) After visual inspection of the graphical plots of AUC and ratios stratified by genotype, t test analysis was applied to the data showing the possible presence of an inter-genotype difference in irinotecan pharmacokinetics.
(§3) Two SNPs in SLCO1B1 [*1b (388A>G) and *5 (521T>C)] were also genotyped.
The next data set deals with T2, OATP1B1 (Homo sapiens, UniProt Q9Y6L6).
T2 sequence (Q9Y6L6 1-691): T1 sequence (Q9Y6L6 1-691 N130D/V174A) with D130N, A174V
The settings on record: cited from earlier work.

For data set [3] the following is noted: human, in vivo.
From the text: as §1, §2, §3
For data set [4] the following is noted: early single agent trials; fraction of patients; cited from earlier work.
For data set [5] the following is noted: cited from earlier work.
The mark [6] stands for this setting: OATP1B1*1a and three common variants.

The source of these data is patent US20090247475A1, “METHODS AND COMPOSITIONS RELATING TO PHARMACOGENETICS OF DIFFERENT GENE VARIANTS IN THE CONTEXT OF IRINOTECAN-BASED THERAPIES” (The Regents of the University of California, priority 2004, published 2009).

Molecules are shown by their SMILES. Substitutions are numbered along the chain they refer to. Where two headings read alike, the source gives them in different places.

Regarding `CCc1c2c(nc3ccc(O)cc13)-c1cc3c(c(=O)n1C2)COC(=O)[C@]3(O)CC` [SN-38, 7-ethyl-10-hydroxycamptothecin], the “Transport activity of SLCO1B1*15 variant” value in data set [1] is listed as “decreased transport activities”. Further, in data set [2] (350 mg/m^2 IV irinotecan, SN-38 and SN-38G analysed in 6/6 and 6/7 UGT1A1 genotype patients), the “AUC in ABCC2 3972 TT patients compared to CT and CC patients” value is “No significant correlation”. Moreover, the “Transport by OATP1B1” value on OATP1B1 (setting [6]) was “transport activity for SN-38 was observed”. Further, the “Inhibition of SLCO1B1-mediated uptake of [(3)H]estrone-3-sulfate” value at OATP1B1 is “significant inhibitory effect”.
In the case of `CCc1c2c(nc3ccc(O[C@@H]4O[C@H](C(=O)O)[C@@H](O)[C@H](O)[C@H]4O)cc13)-c1cc3c(c(=O)n1C2)COC(=O)[C@]3(O)CC` [SN-38G, 10O-glucuronyl-SN-38], the “Transport by OATP1B1” value on OATP1B1 was “not transported”. The “Effect of SLCO1B1*5 variant on patient exposure (AUC)” value in data set [3] was “not affected”.
`C[C@]12CC[C@@H]3c4ccc(OS(=O)(=O)O)cc4CC[C@H]3[C@@H]1CCC2=O` [estrone-3-sulfate]: the “Transport activity of SLCO1B1*15 variant” value in data set [1] is “decreased transport activities”.
For the molecule `CCc1c2c(nc3ccc(OC(=O)N4CCC(N5CCCCC5)CC4)cc13)-c1cc3c(c(=O)n1C2)COC(=O)[C@]3(O)CC` [irinotecan, Irinotecan], the “Frequency of grade 3-4 diarrhea” value in data set [4] is given as “about one third”. In addition, the “Effect of SLCO1B1*1b allele on plasma disposition” value in data set [2] (human, in vivo) is on record as “no effect”. The “Transport by OATP1B1” value at OATP1B1 (setting [6]) was “not transported”. Further, the “Effect of SLCO1B1*5 variant on patient exposure (AUC)” value in data set [3] is “increase in irinotecan AUC”.
As for `CC[C@H](C)C(=O)O[C@H]1C[C@H](O)C=C2C=C[C@H](C)[C@H](CC[C@@H](O)C[C@@H](O)CC(=O)O)[C@H]21` [pravastatin], the “Mean pravastatin AUC0-12 higher compared to non-carriers” value in data set [5] (heterozygous carriers of *15B) is listed as 93%; in data set [5] (heterozygous carriers of *17), 130%. In data set [5] (subjects with SLCO1B1 -11187GA genotype), the “Mean pravastatin AUC0-12 higher compared to reference genotype” value is recorded as 98%. The “Transport activity of SLCO1B1*15 variant” value in data set [1] is “decreased transport activities”.
